Laboratory results: publication PMC10781884 (Computational and Structural Biotechnology Journal, 2023)
Ends that are not written are not given here.

Tests used:
[1] = tested on: Micrococcus luteus; test: Minimum inhibitory and minimum bactericidal concentrations; assay type: cell-based; settings: bacterium not named in the method sentence; Fig. 6 uses Micrococcus luteus
[2] = tested on: Pseudomonas fluorescens; test: Bactericidal activity of MPEG1 peptides, plate count; assay type: cell-based; settings: peptide 20 µM, 4 h

Sequence | minimum bactericidal concentrations (MBCs) [1] [µM] | effect on the propagation of P. fluorescens [2]
KCFLRRRRSRA [Bc] | 20 | 
MKRRRKFSHFSFKRGY [Dr-2] | 10 | 
RRHKSVKRDSRGLT [Nv] |  | slightly enhance the propagation
VKRRRRLAGFRTVRGY [Sc] | 20 | 
RKWRSKRKQKSKKSSQRYM [Aq-2] | 40 | 
RRNRRRSRSSLSPTTSN [Aj-2] |  | slightly enhance the propagation
